The text below walks through data of US8299103B2, “Compounds which selectively modulate the CB2 receptor” (Boehringer Ingelheim International GmbH, priority 2009, dated 2012).

Read-outs that look alike come from different tables or passages of the source.

In one test the target is T1, human CB2R (Homo sapiens, UniProt P34972).
T1 construct: host or cells: CHO cells
The test can be described thus: CB2R mediated modulation of cAMP synthesis. The format is cell-based. The method, then:
B. CB2R Mediated Modulation of cAMP Synthesis:
Compounds of the invention are evaluated for their CB2 agonist or inverse agonistic activity in accordance with the following experimental method.
(§1) CHO cells expressing human CB2R (Euroscreen) are plated at a density of 5000 cells per well in 384 well plates and incubated overnight at 37° C. After removing the media, the cells are treated with test compounds diluted in stimulation buffer containing 1 mM IBMX, 0.25% BSA and 10 uM Forskolin. The assay is incubated for 30 minutes at 37° C. Cells are lysed and the cAMP concentration is measured using DiscoverX-XS cAMP kit, following the manufacturer's protocol. In this setting, agonists will decrease forskolin induced production of cAMP while inverse agonists will further increase forskolin induced production of cAMP. EC50 of agonists are calculated as follows. The maximal amount of cAMP produced by forskolin compared to the level of cAMP inhibited by 1 uM CP55940 is defined as 100%. The EC50 value of each test compound is determined as the concentration at which 50% of the forskolin-stimulated cAMP synthesis is inhibited. Data is analyzed using a four-parameter logistic model. (Model 205 of XLfit 4.0).

The target in another test is T2, human CB1R (Homo sapiens, UniProt P21554).
T2 construct: host or cells: CHO cells
Kind of test: CB1R mediated modulation of cAMP synthesis. The format is cell-based. The method, then: C. CB1R Mediated Modulation of cAMP Synthesis:
Compounds of the invention are evaluated for their CB1 agonist or inverse agonistic activity in accordance with the following experimental method.
as §1, with “CB1R” for “CB2R”

[1] abbreviates: CHO cells expressing human CB2R, inhibition of forskolin-stimulated cAMP synthesis, read-out: CB2 EC50.
[2] abbreviates: CHO cells expressing human CB1R, inhibition of forskolin-stimulated cAMP synthesis, read-out: CB1 EC50.

One may read the EC50 as the concentration at which the effect is half-maximal.

T1 sequence (P34972 whole entry): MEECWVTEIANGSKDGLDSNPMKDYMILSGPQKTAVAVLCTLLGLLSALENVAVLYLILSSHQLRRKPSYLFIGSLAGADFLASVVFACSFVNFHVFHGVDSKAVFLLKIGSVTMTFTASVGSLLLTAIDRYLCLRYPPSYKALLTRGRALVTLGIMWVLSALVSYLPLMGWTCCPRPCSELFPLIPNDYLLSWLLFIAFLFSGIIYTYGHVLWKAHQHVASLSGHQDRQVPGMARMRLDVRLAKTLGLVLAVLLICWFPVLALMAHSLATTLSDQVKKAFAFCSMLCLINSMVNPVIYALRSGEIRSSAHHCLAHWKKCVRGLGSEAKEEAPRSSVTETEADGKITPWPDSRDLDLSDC
T2 sequence (P21554 whole entry): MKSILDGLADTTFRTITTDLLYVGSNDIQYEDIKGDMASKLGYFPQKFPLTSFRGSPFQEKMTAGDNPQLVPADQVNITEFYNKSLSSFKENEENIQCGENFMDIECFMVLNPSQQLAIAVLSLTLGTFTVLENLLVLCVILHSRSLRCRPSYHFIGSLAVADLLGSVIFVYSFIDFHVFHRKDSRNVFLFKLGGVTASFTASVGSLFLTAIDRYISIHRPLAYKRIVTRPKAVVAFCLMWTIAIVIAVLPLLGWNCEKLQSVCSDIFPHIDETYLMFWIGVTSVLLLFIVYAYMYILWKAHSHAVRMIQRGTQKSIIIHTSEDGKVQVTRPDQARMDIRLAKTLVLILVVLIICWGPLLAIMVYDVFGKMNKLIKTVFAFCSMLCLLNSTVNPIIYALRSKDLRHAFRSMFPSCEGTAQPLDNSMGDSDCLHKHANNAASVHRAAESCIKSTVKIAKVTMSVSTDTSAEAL

As for `CN(C1CCOCC1)C(C)(C)C(=O)Nc1cc(C(C)(C)C2CCOCC2)no1`, the EC50 at human CB2R was 44 nM; on human CB1R it was more than 50000 nM.

For `CN(C(=O)CCCC(F)(F)F)C(C)(C)C(=O)Nc1cc(C(C)(C)CO)no1`, the EC50 was 27 nM on human CB2R and 32100 nM at human CB1R.

For the molecule `CC(C)(N[C@H]1CC[C@@H](O)CC1)C(=O)Nc1cc(C(C)(C)CO)no1`, the EC50 was 300 nM at human CB2R (setting [1]) and more than 50000 nM on human CB1R (setting [2]).

For the molecule `CN(C[C@@H]1COCCO1)C(C)(C)C(=O)Nc1cc(C(C)(C)CO)no1`, the concentration giving a half-maximal response (EC50) at human CB2R was 40 nM; on human CB1R, more than 50000 nM.

Regarding `CN(C1CC1)C(C)(C)C(=O)Nc1cc(C(C)(C)CO)no1`, on human CB2R, the EC50 was determined as 446 nM.

Consider `CN(C(=O)C[C@H]1CCOC1)C(C)(C)C(=O)Nc1cc(C(C)(C)CO)no1`, for which the results for the EC50 on human CB2R and on human CB1R were 25 nM and more than 50000 nM, respectively.

For the molecule `Cc1ncc(C(C)(C)c2cc(NC(=O)C(C)(C)NC3CCN(S(C)(=O)=O)CC3)on2)s1`, the EC50 was 195 nM on human CB2R (setting [1]) and more than 50000 nM at human CB1R (setting [2]).

As to `COCCOCC(C)(C)c1cc(NC(=O)C(C)(C)N(C)C2CCOCC2)on1`, the results for the 50% effective concentration (EC50) on human CB2R (setting [1]) and on human CB1R (setting [2]) were 246 nM and more than 50000 nM, respectively.

Consider `CC(C)(NCCC1CCOCC1)C(=O)Nc1cc(C(C)(C)CO)no1`, for which the EC50 was 113 nM on human CB2R (setting [1]) and more than 50000 nM on human CB1R (setting [2]).

For the molecule `CC[C@H](C)N(C)C(C)(C)C(=O)Nc1cc(C(C)(C)CO)no1`, the EC50 on human CB2R (setting [1]) is 220 nM; at human CB1R (setting [2]), more than 50000 nM.

`CC(C)(NCC1CCOCC1)C(=O)Nc1cc(C(C)(C)COC2CCCCO2)no1` (centres unmarked): the EC50 at human CB2R (setting [1]) is 201 nM; at human CB1R (setting [2]) it was more than 50000 nM.

For the molecule `CC(C)(CO)c1cc(NC(=O)C(C)(C)N2CCCCC2)on1`, the EC50 at human CB2R came out at 28 nM; on human CB1R it was 22000 nM.

Turning to `CN(C1CCOCC1)C(C)(C)C(=O)Nc1cc(C2(CO)CCCC2)no1`, the EC50 on human CB2R came out at 21 nM; on human CB1R, 21500 nM.

As to `COCC(C)(C)c1cc(NC(=O)C(C)(C)NCC2CCOCC2)no1`, the results for the EC50 on human CB2R (setting [1]) and at human CB1R (setting [2]) were 132 nM and more than 20000 nM, respectively.

As for `CN(C[C@H]1CCCN(S(C)(=O)=O)C1)C(C)(C)C(=O)Nc1cc(C(C)(C)CO)no1`, the EC50 is 126 nM at human CB2R (setting [1]) and more than 50000 nM on human CB1R (setting [2]).

Consider `CN(C(=O)CCC(F)(F)F)C(C)(C)C(=O)Nc1cc(C(C)(C)CO)no1`, for which the results for the EC50 on human CB2R and on human CB1R were 69 nM and more than 50000 nM, respectively.

Regarding `CC(C)(CO)c1cc(NC(=O)C(C)(C)N2CC[C@@H](O)C2)on1`, the EC50 on human CB2R (setting [1]) was 494 nM; on human CB1R (setting [2]), more than 50000 nM.

As to `CN(CC1CCOC1)C(C)(C)C(=O)Nc1cc(C(C)(C)CO)no1` (centres unmarked), the EC50 is 29 nM at human CB2R and more than 50000 nM on human CB1R.

`C[C@H](O)C(C)(C)c1cc(NC(=O)C(C)(C)N(C)C2CCOCC2)on1`: the EC50 was found to be 28 nM at human CB2R and 44700 nM at human CB1R.

Take `CN(C1CCOCC1)C(C)(C)C(=O)Nc1cc(C2(CO)CCC2)no1`: the results for the EC50 on human CB2R and on human CB1R were 66 nM and more than 50000 nM, respectively.

In the case of `CN(CC1CCOCC1)C(C)(C)C(=O)Nc1nnc(C(C)(C)CO)s1`, the EC50 is 11 nM at human CB2R (setting [1]) and more than 50000 nM at human CB1R (setting [2]).

Regarding `CN(CC1CC1)C(C)(C)C(=O)Nc1cc(C(C)(C)CO)no1`, the half-maximal effective concentration (EC50) turned out to be 12 nM at human CB2R and 36000 nM at human CB1R.

In the case of `CC(C)(NCC1CCOCC1)C(=O)Nc1cc(C(C)(C)CO)no1`, the values for the EC50 at human CB2R (setting [1]) and at human CB1R (setting [2]) were 374 nM and more than 50000 nM, respectively.

As to `CN(C[C@H]1COCCO1)C(C)(C)C(=O)Nc1cc(C(C)(C)CO)no1`, the EC50 was 68 nM on human CB2R and more than 50000 nM at human CB1R.

Turning to `CN(C1CCOCC1)C(C)(C)C(=O)Nc1cc(C(C)(C)CO)no1`, the EC50 on human CB2R was 56 nM; on human CB1R it was more than 50000 nM.

In the case of `CC(C)(NCCCC(F)(F)F)C(=O)Nc1cc(C(C)(C)CO)no1`, the EC50 on human CB2R is 31 nM; at human CB1R it was more than 50000 nM.

For the molecule `CC(C)(CO)c1cc(NC(=O)C(C)(C)N2CCC(NS(C)(=O)=O)CC2)on1`, the EC50 on human CB2R is 7.1 nM; on human CB1R, more than 50000 nM.

Consider `COCC(C)(C)c1cc(NC(=O)C(C)(C)NC2CCOCC2)no1`, for which the EC50 at human CB2R (setting [1]) was 337 nM; at human CB1R (setting [2]), more than 20000 nM.

For the molecule `COCC(C)(C)c1cc(NC(=O)C(C)(C)NC2CCOCC2)on1`, the EC50 at human CB2R (setting [1]) is 313 nM; at human CB1R (setting [2]), more than 20000 nM.

Take `CC(C)(N[C@H]1CC[C@@H](NS(C)(=O)=O)CC1)C(=O)Nc1cc(C(C)(C)CO)no1`: the EC50 on human CB2R was 42 nM; on human CB1R, more than 50000 nM.

For the molecule `CN([C@H]1CCN(S(C)(=O)=O)C1)C(C)(C)C(=O)Nc1cc(C(C)(C)CO)no1`, the EC50 is 28 nM on human CB2R and more than 50000 nM at human CB1R.

In the case of `CC(C)N(C)C(C)(C)C(=O)Nc1cc(C(C)(C)CO)no1`, the EC50 is 244 nM on human CB2R (setting [1]) and more than 50000 nM on human CB1R (setting [2]).

For the molecule `CC(C)(NCCCC(F)(F)F)C(=O)Nc1cc(C2(CO)CCC2)no1`, the EC50 was 54 nM on human CB2R and more than 50000 nM on human CB1R.

`CN(CC1CCOCC1)C(C)(C)C(=O)Nc1cc(C2(O)CC2)no1`: the EC50 at human CB2R was 13 nM; on human CB1R, more than 50000 nM.

With `CN([C@@H]1CCN(S(C)(=O)=O)C1)C(C)(C)C(=O)Nc1cc(C(C)(C)CO)no1`, the EC50 on human CB2R is 1.7 nM; on human CB1R, more than 20000 nM.

Turning to `CN(C(=O)CC1CCOCC1)C(C)(C)C(=O)Nc1cc(C(C)(C)CO)no1`, the EC50 at human CB2R is 27 nM; on human CB1R, more than 50000 nM.

Take `CC(C)(NCCCC(F)(F)F)C(=O)Nc1cc(C(C)(C)OCCO)no1`: the figures for the EC50 on human CB2R (setting [1]) and on human CB1R (setting [2]) were 109 nM and more than 50000 nM, respectively.

On to `CN(C1CCOCC1)C(C)(C)C(=O)Nc1cc(C(C)(C)COCCO)no1`, for which the EC50 was determined as 15 nM at human CB2R and 37600 nM at human CB1R.

For `CC(C)(NC1CCN(S(C)(=O)=O)CC1)C(=O)Nc1cc(C(C)(C)CO)no1`, the EC50 on human CB2R (setting [1]) was 302 nM; on human CB1R (setting [2]), more than 50000 nM.

Turning to `Cc1ncc(C(C)(C)c2cc(NC(=O)C(C)(C)N(C)C3CCOCC3)on2)o1`, the EC50 on human CB2R was determined as 15 nM; at human CB1R, 20800 nM.

In the case of `CC(C)(NC1CCC(NS(C)(=O)=O)CC1)C(=O)Nc1nnn(C(C)(C)C)n1` (centres unmarked), the EC50 at human CB2R (read-out: CB2 EC50, CHO cells expressing human CB2R, inhibition of forskolin-stimulated cAMP synthesis) is 33 nM; on human CB1R (read-out: CB1 EC50, CHO cells expressing human CB1R, inhibition of forskolin-stimulated cAMP synthesis), more than 50000 nM.

With `COCCOC(C)(C)c1cc(NC(=O)C(C)(C)N(C)C2CCOCC2)on1`, the EC50 was 93 nM at human CB2R and more than 50000 nM on human CB1R.
